According to patent US20130059324A1, “SYSTEMS AND METHODS FOR MECHANICALLY STRAINED CELL CULTURE” (THE UNIVERSITY OF KANSAS, priority 2010, published 2013):

Columns and labels:
[1] = system: cells in a static monolayer culture; experiment: IC90 in static monolayer culture (tested concentration); type: cell-based; settings: concentration that inhibits the growth of 90% of the cells in a static monolayer culture
Experimental: Table 1 includes a list of investigated chemotherapeutic drugs, their mechanisms of action and the tested concentrations.
(§1) After 72 hours of initial seeding, one of the five drugs was added to Treatments 3 and 6 of each cell line. […] The IC90, concentration of the drug that inhibits the growth of 90% of the cells in a static monolayer culture, was used to assure a significant inhibition in the absence of simulated forces. To insure comparability, an aliquot of 1 ml of media without the drug was added to each well in Treatments 2 and 5. After adding the drug or 1 ml of media, the plates from Treatments 5 and 6 were placed back on the baseplate and subjected to the same force profile as before for the remaining 72 hours. Plates from Treatments 2 and 3 (without forces) were placed in the same incubator for the remaining 72 hours.

A549 cells = experiment: Drug exposure with or without simulated forces, 6-well Bioflex plates, live cell count and exponential growth model; type: cell-based, human
Experimental: (§2) Treatments 1, 2 and 3 served as unstretched controls for Treatments 4, 5 and 6, respectively. For each cell line and drug, all treatments were independently repeated at least 3 times on different days, with 3 replicates per Treatments 1 and 4 (n=9) and 5 replicates per all other treatments (n=15).
Cells were passaged in 75 cm2 culture flasks at 37° C. in 5% CO2, and trypsinized using TryplE™ Express (Gibco) containing phenol red.
Cells were plated in 6-well Bioflex® plates (Flexcell® International Corporation, Hillsborough, N.C.). Each well of the plate has a flexible elastic membrane coated with a thin layer of type I collagen. Type I collagen was chosen since it more accurately represents the physiology of lung tumor cells in vivo. […] In Treatments 1, 2 and 3, NCI-H358 and A549 cells were plated at a density of 100,000 and 20,000 cells/well in 2 ml of corresponding media, respectively. For treatments involving simulated forces (Treatments 4-6), NCI-H358 and A549 cells were plated at a density of 170,000 and 35,000 cells/well, respectively.
(§3) After allowing the cells to adhere to the membrane for 24 hours, the plates assigned for simulated forces were stretched using the FX-4000 Tension plus unit (Flexcell® International Corporation, Hillsborough, N.C.). The Flexcell unit was configured to deliver an alternating positive and negative pressure beneath the cell culture surfaces. Negative pressure pulls the culture surface down over a stationary Delrin post on the baseplate, delivering a uniform biaxial strain to the cells, and subsequent application of positive pressure releases this distension (FIGS. 9A and 9B.) In this manner, the alternating positive and negative pressure simulates forces experienced during respiration. Culture plates experiencing forces were fitted with rubber gaskets and placed on circular loading stations in the baseplate.
After 72 hours of initial seeding, one of the five drugs was added to Treatments 3 and 6 of each cell line. […] To insure comparability, an aliquot of 1 ml of media without the drug was added to each well in Treatments 2 and 5. After adding the drug or 1 ml of media, the plates from Treatments 5 and 6 were placed back on the baseplate and subjected to the same force profile as before for the remaining 72 hours. Plates from Treatments 2 and 3 (without forces) were placed in the same incubator for the remaining 72 hours.
(§4) Cells were trypsinized and counted at the end of day 3 in Treatments 1 and 4, and at the end of day 6 in the other treatments, using a Beckman Coulter Vi-Cell Analyzer (Beckman Coulter, Fullerton, Calif.). To examine changes in morphology, microphotographs of A549 and NCI-H358 cells were taken at the end of Treatments 1, 2, 4 and 5 using an Olympus inverted microscope and a 10× objective.
The standard exponential cell growth model (28) was used to describe the changes in live cell counts after each treatment. According to this model, the cell count (e.g., N) at a particular time (e.g., t), is given by the equation:
N* is the initial cell count and λ is the cell growth rate. For each cell line, the following cell growth rates were estimated: λ=growth rate in the absence of forces and drugs, λd=growth rate in the presence of a particular drug but no forces, λXf=growth rate in the presence of forces but no drugs; and λfd=growth rate in the presence of forces and a particular drug. The growth rates λd and λfd were estimated for each tested drug. Using these growth rates and the exponential growth model, the final cell counts were mathematically modeled for each treatment under various conditions (FIG. 8). For each cell line, a linear regression model that combined the information from the 5 investigated drugs was built using Stata Statistical Software (StataCorp LP, Texas) after log-transforming the six equations listed in FIG. 8. The regression coefficients in the model were the growth rates.

NCI-H358 cells = experiment: as above; type: cell-based, human
Excerpt: as §2
The NCI-H358 (ATCC® CRL-5807) and A549 (ATCC® CCL-185) cell lines were obtained from American Type Culture Collection (ATCC, Manassas, Va.) and cultured in RPMI-1640 (NCI-H358) and HAM's F12K (A549) media containing 10% Fetal Bovine Serum (Sigma Aldrich, St. Louis, Mo.) and 1% Penicillin Streptomycin (Sigma Aldrich). Cells were passaged in 75 cm2 culture flasks at 37° C. in 5% CO2, and trypsinized using TryplE™ Express (Gibco) containing phenol red.
Cells were plated in 6-well Bioflex® plates (Flexcell® International Corporation, Hillsborough, N.C.). Each well of the plate has a flexible elastic membrane coated with a thin layer of type I collagen. Type I collagen was chosen since it more accurately represents the physiology of lung tumor cells in vivo. The Flexcell is not configured for drug studies as described herein, and had to be modified as described herein. […] Therefore, to have the same number of cells in culture at the time of drug exposure, initial seeding densities for treatments not involving simulated forces (Treatments 1-3) and those involving forces (Treatments 4-6) were adjusted for each cell line. In Treatments 1, 2 and 3, NCI-H358 and A549 cells were plated at a density of 100,000 and 20,000 cells/well in 2 ml of corresponding media, respectively. For treatments involving simulated forces (Treatments 4-6), NCI-H358 and A549 cells were plated at a density of 170,000 and 35,000 cells/well, respectively.
as §3, with “baseplate. […] Cells were preconditioned with mechanical forces for 48 hours, in an incubator at 37° C., 5% CO2 and 95% relative humidity.” for “baseplate.”
as §1, §4
The standard exponential cell growth model (28) was used to describe the changes in live cell counts after each treatment. […]

[2] = drug at IC90 for 3 days, 20% maximum strain, 15 cycles/minute
[3] = percentage reduction in live cell counts, 3-day drug exposure at IC90, no forces
[4] = percentage reduction in live cell counts, 3-day drug exposure at IC90, simulated forces

## CC(=O)O[C@H]1C(=O)[C@@]2(C)[C@H]([C@H](OC(=O)c3ccccc3)[C@]3(O)C[C@H](OC(=O)[C@H](O)[C@@H](NC(=O)c4ccccc4)c4ccccc4)C(C)=C1C3(C)C)[C@]1(OC(C)=O)CO[C@@H]1C[C@@H]2O [Paclitaxel]
[1]
  IC90: 50 nM
A549 cells; [2]
  Growth Rates, With forces: −0.038 per day
A549 cells; drug at IC90 for 3 days, no forces, negative = reduction in viable cell count
  Growth Rates, Without forces: 0.133 per day
A549 cells; [3]
  Effectiveness of The Drug, Without forces (E): 76.9%
A549 cells; [4]
  Effectiveness of The Drug, With forces (Ef): 57.5%
NCI-H358 cells; [2]
  Growth Rates, With forces: −0.276 per day
NCI-H358 cells; drug at IC90 for 3 days, no forces
  Growth Rates, Without forces: −0.005 per day
NCI-H358 cells; [3]
  Effectiveness of The Drug, Without forces (E): 70.5%
NCI-H358 cells; [4]
  Effectiveness of The Drug, With forces (Ef): 66.8%
